# Key:
# Test in all cases: relative viability (nuclei count vs DMSO), 5 days (fraction); higher = more cells survive
# [1] = compound: CC1=CC(=CC=C1)NC2=NC(=CS2)C3=CC=NC=C3 + CC(=O)c1c(C)c2cnc(Nc3ccc(N4CCNCC4)cn3)nc2n(C2CCCC2)c1=O [Palbociclib] (partner 0.5 µM)
# Procedure, shortened: (§1)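 Dosing by pin tool came one day after lung cancer cell lines were seeded in 1536-well plates, using either one drug or a fixed anchor-drug dose plus five library-drug doses (not always all listed) in √10 steps. After 5 days, nuclei were counted on 4× images. Relative viability is treated-well nuclei count divided by vehicle-well nuclei count, and values are medians of duplicate plates.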
# [2] = compound: CC1=CC(=CC=C1)NC2=NC(=CS2)C3=CC=NC=C3 + NC(=O)Nc1cc(-c2cccc(F)c2)sc1C(=O)N[C@H]1CCCNC1 [AZD7762] (partner 0.2 µM)
# Procedure, shortened: as §1
# Masitinib + Decitabine = compound: Cc1ccc(NC(=O)c2ccc(CN3CCN(C)CC3)cc2)cc1Nc1nc(-c2cccnc2)cs1 [Masitinib] + Nc1ncn([C@H]2C[C@H](O)[C@@H](CO)O2)c(=O)n1 [Decitabine] (partner 2 µM)
# Procedure, shortened: as §1
# Masitinib + Crizotinib = compound: Cc1ccc(NC(=O)c2ccc(CN3CCN(C)CC3)cc2)cc1Nc1nc(-c2cccnc2)cs1 [Masitinib] + C[C@@H](Oc1cc(-c2cnn(C3CCNCC3)c2)cnc1N)c1c(Cl)ccc(F)c1Cl [Crizotinib] (partner 1 µM)
# Procedure, shortened: as §1
cell line,measurement,setting,value
NCI-H522,relative viability,[1]; first compound 0.08 µM,1.19
same,relative viability,[1]; first compound 0.253 µM,0.797
same,relative viability,[1]; first compound 0.8 µM,0.92
same,relative viability,[1]; first compound 2.53 µM,0.954
same,relative viability,[1]; first compound 8 µM,0.947
same,relative viability,[2]; first compound 0.08 µM,0.681
same,relative viability,[2]; first compound 0.253 µM,0.822
same,relative viability,[2]; first compound 0.8 µM,0.803
same,relative viability,[2]; first compound 2.53 µM,0.848
same,relative viability,[2]; first compound 8 µM,0.852
same,relative viability,Masitinib + Decitabine; first compound 0.01 µM,0.707
same,relative viability,Masitinib + Decitabine; first compound 0.03162 µM,0.897
same,relative viability,Masitinib + Decitabine; first compound 0.1 µM,0.8
same,relative viability,Masitinib + Decitabine; first compound 0.3162 µM,0.696
same,relative viability,Masitinib + Decitabine; first compound 1 µM,0.646
NCI-H1703,relative viability,[2]; first compound 0.08 µM,0.121
same,relative viability,[2]; first compound 0.253 µM,0.127
same,relative viability,[2]; first compound 0.8 µM,0.14
same,relative viability,[2]; first compound 2.53 µM,0.148
same,relative viability,[2]; first compound 8 µM,0.112
same,relative viability,Masitinib + Crizotinib; first compound 0.01 µM,0.483
same,relative viability,Masitinib + Crizotinib; first compound 0.03162 µM,0.758
same,relative viability,Masitinib + Crizotinib; first compound 0.1 µM,0.293
same,relative viability,Masitinib + Crizotinib; first compound 0.3162 µM,0.492
same,relative viability,Masitinib + Crizotinib; first compound 1 µM,0.139
NCI-H1793,relative viability,[1]; first compound 0.08 µM,0.269
same,relative viability,[1]; first compound 0.253 µM,0.305
same,relative viability,[1]; first compound 0.8 µM,0.297
same,relative viability,[1]; first compound 2.53 µM,0.261
same,relative viability,[1]; first compound 8 µM,0.336
same,relative viability,[2]; first compound 0.08 µM,0.366
same,relative viability,[2]; first compound 0.253 µM,0.487
same,relative viability,[2]; first compound 0.8 µM,0.522
same,relative viability,[2]; first compound 2.53 µM,0.789
same,relative viability,[2]; first compound 8 µM,0.407
same,relative viability,Masitinib + Decitabine; first compound 0.01 µM,0.486
same,relative viability,Masitinib + Decitabine; first compound 0.03162 µM,0.509
same,relative viability,Masitinib + Decitabine; first compound 0.1 µM,0.502
same,relative viability,Masitinib + Decitabine; first compound 0.3162 µM,0.53
same,relative viability,Masitinib + Decitabine; first compound 1 µM,0.591
Calu-6,relative viability,Masitinib + Crizotinib; first compound 0.01 µM,0.781
same,relative viability,Masitinib + Crizotinib; first compound 0.03162 µM,0.808
same,relative viability,Masitinib + Crizotinib; first compound 0.1 µM,0.886
same,relative viability,Masitinib + Crizotinib; first compound 0.3162 µM,0.843
same,relative viability,Masitinib + Crizotinib; first compound 1 µM,0.73
CAL-12T,relative viability,[1]; first compound 0.08 µM,0.402
same,relative viability,[1]; first compound 0.253 µM,0.414
same,relative viability,[1]; first compound 0.8 µM,0.391
same,relative viability,[1]; first compound 2.53 µM,0.329
same,relative viability,[1]; first compound 8 µM,0.586
same,relative viability,[2]; first compound 0.08 µM,0.527
same,relative viability,[2]; first compound 0.253 µM,0.63
same,relative viability,[2]; first compound 0.8 µM,0.604
same,relative viability,[2]; first compound 2.53 µM,0.516
same,relative viability,[2]; first compound 8 µM,0.561
same,relative viability,Masitinib + Crizotinib; first compound 0.01 µM,0.625
same,relative viability,Masitinib + Crizotinib; first compound 0.03162 µM,0.472
same,relative viability,Masitinib + Crizotinib; first compound 0.1 µM,0.623
same,relative viability,Masitinib + Crizotinib; first compound 0.3162 µM,0.66
same,relative viability,Masitinib + Crizotinib; first compound 1 µM,0.464
SK-LU-1,relative viability,[1]; first compound 0.08 µM,0.405
same,relative viability,[1]; first compound 0.253 µM,0.404
same,relative viability,[1]; first compound 0.8 µM,0.293
same,relative viability,[1]; first compound 2.53 µM,0.479
same,relative viability,[1]; first compound 8 µM,0.37
same,relative viability,Masitinib + Crizotinib; first compound 0.01 µM,0.832
same,relative viability,Masitinib + Crizotinib; first compound 0.03162 µM,0.884
same,relative viability,Masitinib + Crizotinib; first compound 0.1 µM,0.983
same,relative viability,Masitinib + Crizotinib; first compound 0.3162 µM,1.01
same,relative viability,Masitinib + Crizotinib; first compound 1 µM,0.756
same,relative viability,Masitinib + Decitabine; first compound 0.01 µM,0.569
same,relative viability,Masitinib + Decitabine; first compound 0.03162 µM,0.526
same,relative viability,Masitinib + Decitabine; first compound 0.1 µM,0.725
same,relative viability,Masitinib + Decitabine; first compound 0.3162 µM,0.594
same,relative viability,Masitinib + Decitabine; first compound 1 µM,0.646
EBC-1,relative viability,Masitinib + Crizotinib; first compound 0.01 µM,0.191
same,relative viability,Masitinib + Crizotinib; first compound 0.03162 µM,0.205
same,relative viability,Masitinib + Crizotinib; first compound 0.1 µM,0.195
same,relative viability,Masitinib + Crizotinib; first compound 0.3162 µM,0.162
same,relative viability,Masitinib + Crizotinib; first compound 1 µM,0.212
NCI-H2009,relative viability,[1]; first compound 0.08 µM,0.251
same,relative viability,[1]; first compound 0.253 µM,0.309
same,relative viability,[1]; first compound 0.8 µM,0.28
same,relative viability,[1]; first compound 2.53 µM,0.279
same,relative viability,[1]; first compound 8 µM,0.23
same,relative viability,Masitinib + Crizotinib; first compound 0.01 µM,1.03
same,relative viability,Masitinib + Crizotinib; first compound 0.03162 µM,1.09
same,relative viability,Masitinib + Crizotinib; first compound 0.1 µM,1
same,relative viability,Masitinib + Crizotinib; first compound 0.3162 µM,1.02
same,relative viability,Masitinib + Crizotinib; first compound 1 µM,0.99
same,relative viability,Masitinib + Decitabine; first compound 0.01 µM,0.368
same,relative viability,Masitinib + Decitabine; first compound 0.03162 µM,0.332
same,relative viability,Masitinib + Decitabine; first compound 0.1 µM,0.409
same,relative viability,Masitinib + Decitabine; first compound 0.3162 µM,0.406
same,relative viability,Masitinib + Decitabine; first compound 1 µM,0.371
NCI-H1563,relative viability,Masitinib + Crizotinib; first compound 0.01 µM,0.833
same,relative viability,Masitinib + Crizotinib; first compound 0.03162 µM,0.865
same,relative viability,Masitinib + Crizotinib; first compound 0.1 µM,0.907
same,relative viability,Masitinib + Crizotinib; first compound 0.3162 µM,0.814
same,relative viability,Masitinib + Crizotinib; first compound 1 µM,0.868
NCI-H2342,relative viability,[1]; first compound 0.08 µM,0.455
same,relative viability,[1]; first compound 0.253 µM,0.491
same,relative viability,[1]; first compound 0.8 µM,0.557
same,relative viability,[1]; first compound 2.53 µM,0.503
same,relative viability,[1]; first compound 8 µM,0.497
same,relative viability,[2]; first compound 0.08 µM,0.44
same,relative viability,[2]; first compound 0.253 µM,0.403
same,relative viability,[2]; first compound 0.8 µM,0.505
same,relative viability,[2]; first compound 2.53 µM,0.377
same,relative viability,[2]; first compound 8 µM,0.523
same,relative viability,Masitinib + Decitabine; first compound 0.01 µM,0.724
same,relative viability,Masitinib + Decitabine; first compound 0.03162 µM,0.648
same,relative viability,Masitinib + Decitabine; first compound 0.1 µM,0.683
same,relative viability,Masitinib + Decitabine; first compound 0.3162 µM,0.79
same,relative viability,Masitinib + Decitabine; first compound 1 µM,0.833
NCI-H661,relative viability,[1]; first compound 0.08 µM,0.433
same,relative viability,[1]; first compound 0.253 µM,0.395
same,relative viability,[1]; first compound 0.8 µM,0.391
same,relative viability,[1]; first compound 2.53 µM,0.386
same,relative viability,[1]; first compound 8 µM,0.351
same,relative viability,Masitinib + Crizotinib; first compound 0.01 µM,0.737
same,relative viability,Masitinib + Crizotinib; first compound 0.03162 µM,1.2
same,relative viability,Masitinib + Crizotinib; first compound 0.1 µM,0.964
same,relative viability,Masitinib + Crizotinib; first compound 0.3162 µM,0.93
same,relative viability,Masitinib + Crizotinib; first compound 1 µM,0.844
same,relative viability,Masitinib + Decitabine; first compound 0.01 µM,0.502
same,relative viability,Masitinib + Decitabine; first compound 0.03162 µM,0.552
same,relative viability,Masitinib + Decitabine; first compound 0.1 µM,0.515
same,relative viability,Masitinib + Decitabine; first compound 0.3162 µM,0.535
same,relative viability,Masitinib + Decitabine; first compound 1 µM,0.545
COR-L23,relative viability,[1]; first compound 0.08 µM,0.256
same,relative viability,[1]; first compound 0.253 µM,0.251
same,relative viability,[1]; first compound 0.8 µM,0.232
same,relative viability,[1]; first compound 2.53 µM,0.279
same,relative viability,[1]; first compound 8 µM,0.303
same,relative viability,Masitinib + Crizotinib; first compound 0.01 µM,0.645
same,relative viability,Masitinib + Crizotinib; first compound 0.03162 µM,0.607
same,relative viability,Masitinib + Crizotinib; first compound 0.1 µM,0.768
same,relative viability,Masitinib + Crizotinib; first compound 0.3162 µM,0.59
same,relative viability,Masitinib + Crizotinib; first compound 1 µM,0.629
same,relative viability,Masitinib + Decitabine; first compound 0.01 µM,0.388
same,relative viability,Masitinib + Decitabine; first compound 0.03162 µM,0.412
same,relative viability,Masitinib + Decitabine; first compound 0.1 µM,0.463
same,relative viability,Masitinib + Decitabine; first compound 0.3162 µM,0.329
same,relative viability,Masitinib + Decitabine; first compound 1 µM,0.359

# Source: the supplement of paper PMC10307832
